According to patent publication US20200024278A1, “COMPOSITION COMPRISING ANTIBIOTIC COMPOUND AND AN HETEROCYCLIC COMPOUND AND THEIR USE IN PREVENTING OR TREATING BACTERIAL INFECTIONS” (MUTABILIS, priority 2016, published 2020):

What was measured:
Experiment in all cases: MIC, broth microdilution (CLSI), substance alone or ATB combined with compound at 4 or 8 μg/mL
SPN 49619 = assay type: cell-based, S. pneumoniae; conditions: SPN 49619; for MIC ATB combined with compound / MIC ATB combined with Example compound: compound @4 μg/ml
How it was run: (§1)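 CLSI M7-A7 broth microdilution. ca-MHB, 5·10^5 CFU/mL log-phase cells, 16-20 h, 35° C, ambient air. Fosfomycin wells + 25 μg/ml glucose-6-phosphate. Visual MIC read.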

PAE UFR48 = assay type: cell-based, P. aeruginosa; conditions: PAE UFR48; for MIC ATB combined with compound / MIC ATB combined with Example compound: compound @4 μg/ml
How it was run: as §1

PAE 105250 = assay type: cell-based, P. aeruginosa; conditions: PAE 105250; for MIC ATB combined with compound / MIC ATB combined with Example compound: compound @4 μg/ml
How it was run: as §1

PAE UFR90 = assay type: cell-based, P. aeruginosa; conditions: PAE UFR90; for MIC ATB combined with compound / MIC ATB combined with Example compound: compound @4 μg/ml
How it was run: as §1

ECL P99 = assay type: cell-based, E. cloacae; conditions: ECL P99
How it was run: as §1

KPN UFR42 = assay type: cell-based, K. pneumoniae; conditions: KPN UFR42; for MIC ATB combined with Example compound: compound @4 μg/ml
How it was run: as §1

KPN 6299 = assay type: cell-based, K. pneumoniae; conditions: MIC of CIP, compound @4 μg/ml
How it was run: as §1

KPN BAA-1898 = assay type: cell-based, K. pneumoniae; conditions: KPN BAA-1898
How it was run: as §1

SAU 29213 = assay type: cell-based, S. aureus; conditions: for MIC ATB combined with compound / MIC ATB combined with Example compound: compound @4 μg/ml, SAU 29213
How it was run: as §1

ECO 190317 = assay type: cell-based, E. coli; conditions: ECO 190317
How it was run: as §1

ECO UFR39 = assay type: cell-based, E. coli; conditions: ECO UFR39; for MIC ATB combined with Example compound: compound @4 μg/ml
How it was run: as §1

ABA UFR155 = assay type: cell-based, A. baumannii; conditions: Acinetobacter baumannii, substance alone, read-out: MIC
How it was run: as §1

ABA UFR154 = assay type: cell-based, A. baumannii; conditions: Acinetobacter baumannii, substance alone, read-out: MIC
How it was run: as §1

[1] = Pseudomonas aeruginosa, substance alone, read-out: MIC
[2] = Escherichia coli, substance alone, read-out: MIC

- MIC ATB combined with compound (SPN 49619; ATB ATM): <0.031 µg/mL
- MIC ATB combined with compound (SPN 49619; ATB FEP): <=0.031 μg/mL
- MIC ATB combined with compound (SPN 49619; ATB FOS): 4 µg/mL
- MIC ATB combined with compound (SPN 49619; ATB MEM): <=0.031 μg/mL
- MIC ATB combined with compound (SPN 49619; ATB PIP): <0.031 µg/mL
- MIC ATB combined with Example compound (SPN 49619; MIC of CIP): 0.25 µg/mL
- MIC ATB combined with Example compound (SPN 49619; MIC of CLI): 0.0039 µg/mL
- MIC ATB combined with Example compound (SPN 49619; MIC of CPO): <=0.031 μg/mL
- MIC ATB combined with Example compound (SPN 49619; MIC of DAP): <0.0020 µg/mL
- MIC ATB combined with Example compound (SPN 49619; MIC of ERY): <0.0020 µg/mL
- MIC ATB combined with Example compound (SPN 49619; MIC of LZD): <=0.0078 μg/mL
- MIC ATB combined with Example compound (SPN 49619; MIC of RIF): 0.00024 µg/mL
- MIC ATB combined with Example compound (SPN 49619; MIC of SYN): <=0.0020 μg/mL
- MIC ATB combined with Example compound (SPN 49619; MIC of VAN): <0.0039 µg/mL
- MIC (SPN 49619; Streptococcus pneumoniae, substance alone, read-out: MIC): 8 µg/mL
- MIC ATB combined with compound (PAE UFR48; ATB ATM): 128 µg/mL
- MIC ATB combined with compound (PAE UFR48; ATB FEP): 32 µg/mL
- MIC ATB combined with compound (PAE UFR48; ATB FOS): 32 µg/mL
- MIC ATB combined with compound (PAE UFR48; ATB MEM): 2 µg/mL
- MIC ATB combined with compound (PAE UFR48; ATB PIP): 32 µg/mL
- MIC ATB combined with Example compound (PAE UFR48; MIC of CIP): 4 µg/mL
- MIC ATB combined with Example compound (PAE UFR48; MIC of CPO): >32 µg/mL
- MIC (PAE UFR48; [1]): 128 µg/mL
- MIC ATB combined with compound (PAE 105250; ATB ATM): 8 µg/mL
- MIC ATB combined with compound (PAE 105250; ATB FEP): 8 µg/mL
- MIC ATB combined with compound (PAE 105250; ATB FOS): >128 µg/mL
- MIC ATB combined with compound (PAE 105250; ATB MEM): 4 µg/mL
- MIC ATB combined with compound (PAE 105250; ATB PIP): 32 µg/mL
- MIC ATB combined with Example compound (PAE 105250; MIC of CIP): 0.125 µg/mL
- MIC ATB combined with Example compound (PAE 105250; MIC of CPO): 32 µg/mL
- MIC (PAE 105250; [1]): > 32 µg/mL
- MIC ATB combined with compound (PAE UFR90; ATB ATM): 128 µg/mL
- MIC ATB combined with compound (PAE UFR90; ATB FEP): 4 µg/mL
- MIC ATB combined with compound (PAE UFR90; ATB FOS): 4 µg/mL
- MIC ATB combined with compound (PAE UFR90; ATB MEM): 1 µg/mL
- MIC ATB combined with compound (PAE UFR90; ATB PIP): 16 µg/mL
- MIC ATB combined with Example compound (PAE UFR90; MIC of CIP): 1 µg/mL
- MIC ATB combined with Example compound (PAE UFR90; MIC of CPO): 8 µg/mL
- MIC (PAE UFR90; [1]): > 128 µg/mL
- MIC (ECL P99; Enterobacter cloacae, substance alone, read-out: MIC): 2 µg/mL
- MIC ATB combined with Example compound (ECL P99; MIC of CIP, compound @4 μg/ml): <0.031 µg/mL
- MIC (KPN UFR42; Klebsiella pneumoniae, substance alone, read-out: MIC): 8 µg/mL
- MIC ATB combined with Example compound (KPN UFR42; MIC of CIP): <0.031 µg/mL
- MIC ATB combined with Example compound (KPN UFR42; MIC of CPO): <0.031 µg/mL
- MIC ATB combined with Example compound (KPN 6299): <=0.031 μg/mL
- MIC (KPN BAA-1898; Klebsiella pneumoniae, BAA1898, substance alone, read-out: MIC): 2 µg/mL
- MIC ATB combined with Example compound (KPN BAA-1898; MIC of CIP, compound @4 μg/ml): <0.031 µg/mL
- MIC ATB combined with compound (SAU 29213; ATB ATM): <=0.031 μg/mL
- MIC ATB combined with compound (SAU 29213; ATB FEP): <0.031 µg/mL
- MIC ATB combined with compound (SAU 29213; ATB FOS): <0.125 µg/mL
- MIC ATB combined with compound (SAU 29213; ATB MEM): <0.031 µg/mL
- MIC ATB combined with compound (SAU 29213; ATB PIP): <0.031 µg/mL
- MIC ATB combined with Example compound (SAU 29213; MIC of CIP): <0.031 µg/mL
- MIC ATB combined with Example compound (SAU 29213; MIC of CLI): <0.0010 µg/mL
- MIC ATB combined with Example compound (SAU 29213; MIC of CPO): <0.031 µg/mL
- MIC ATB combined with Example compound (SAU 29213; MIC of DAP): <0.0020 µg/mL
- MIC ATB combined with Example compound (SAU 29213; MIC of ERY): <=0.0020 μg/mL
- MIC ATB combined with Example compound (SAU 29213; MIC of LZD): <0.0078 µg/mL
- MIC ATB combined with Example compound (SAU 29213; MIC of RIF): 0.002 µg/mL
- MIC ATB combined with Example compound (SAU 29213; MIC of SYN): 0.0039 µg/mL
- MIC ATB combined with Example compound (SAU 29213; MIC of VAN): <0.0039 µg/mL
- MIC (SAU 29213; Staphylococcus aureus, substance alone, SAU 29213 (MSSA 29213), read-out: MIC): 8 µg/mL
- MIC (ECO 190317; [2]): 0.5 µg/mL
- MIC ATB combined with Example compound (ECO 190317; MIC of CIP, compound @4 μg/ml): <0.031 µg/mL
- MIC (ECO UFR39; [2]): 2 µg/mL
- MIC ATB combined with Example compound (ECO UFR39; MIC of CIP): <0.031 µg/mL
- MIC ATB combined with Example compound (ECO UFR39; MIC of CPO): <0.031 µg/mL
- MIC (ABA UFR155): > 32 µg/mL
- MIC (ABA UFR154): > 32 µg/mL
SMILES: O=C1N2CC(c3ncco3)=C[C@H](C2)N1OS(=O)(=O)[O-].[Na+] [Example 9, sodium [(5R)-3-(oxazol-2-yl)-7-oxo-1,6-diazabicyclo[3.2.1]oct-3-en-6-yl] sulfate]
